Targets include CDK5 (Homo sapiens, UniProt Q00535); PRKACB (Homo sapiens, UniProt P22694); ZAK (Homo sapiens, UniProt Q9NYL2); PRKCB (Homo sapiens, UniProt P05771); YES1 (Homo sapiens, UniProt P07947); CHEK2 (Homo sapiens, UniProt O96017); CDC42BPG (Homo sapiens, UniProt Q6DT37); STK16 (Homo sapiens, UniProt O75716); EIF2AK4 (Homo sapiens, UniProt Q9P2K8); RIPK2 (Homo sapiens, UniProt O43353); CSNK1D (Homo sapiens, UniProt P48730); PCTK2 (Homo sapiens, UniProt Q00537); MAPK9 (Homo sapiens, UniProt P45984).

What all share (assay): biochemical
For a further test, the target named is T1, STK17A (Homo sapiens, UniProt Q9UEE5).
T1 sequence (Q9UEE5 1-414): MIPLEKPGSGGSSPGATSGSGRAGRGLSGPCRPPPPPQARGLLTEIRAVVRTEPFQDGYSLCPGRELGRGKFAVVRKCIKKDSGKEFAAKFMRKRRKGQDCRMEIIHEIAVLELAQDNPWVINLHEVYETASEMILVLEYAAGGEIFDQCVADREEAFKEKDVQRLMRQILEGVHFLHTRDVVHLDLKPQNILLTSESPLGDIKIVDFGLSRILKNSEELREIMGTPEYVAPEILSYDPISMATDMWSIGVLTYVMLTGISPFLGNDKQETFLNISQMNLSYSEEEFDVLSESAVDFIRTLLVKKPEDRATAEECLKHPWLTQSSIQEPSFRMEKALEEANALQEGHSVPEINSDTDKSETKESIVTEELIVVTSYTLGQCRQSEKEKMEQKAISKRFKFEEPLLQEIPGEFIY

The target in a further test is T2, TBK1 (Homo sapiens, UniProt Q9UHD2).
T2 sequence (Q9UHD2 1-729): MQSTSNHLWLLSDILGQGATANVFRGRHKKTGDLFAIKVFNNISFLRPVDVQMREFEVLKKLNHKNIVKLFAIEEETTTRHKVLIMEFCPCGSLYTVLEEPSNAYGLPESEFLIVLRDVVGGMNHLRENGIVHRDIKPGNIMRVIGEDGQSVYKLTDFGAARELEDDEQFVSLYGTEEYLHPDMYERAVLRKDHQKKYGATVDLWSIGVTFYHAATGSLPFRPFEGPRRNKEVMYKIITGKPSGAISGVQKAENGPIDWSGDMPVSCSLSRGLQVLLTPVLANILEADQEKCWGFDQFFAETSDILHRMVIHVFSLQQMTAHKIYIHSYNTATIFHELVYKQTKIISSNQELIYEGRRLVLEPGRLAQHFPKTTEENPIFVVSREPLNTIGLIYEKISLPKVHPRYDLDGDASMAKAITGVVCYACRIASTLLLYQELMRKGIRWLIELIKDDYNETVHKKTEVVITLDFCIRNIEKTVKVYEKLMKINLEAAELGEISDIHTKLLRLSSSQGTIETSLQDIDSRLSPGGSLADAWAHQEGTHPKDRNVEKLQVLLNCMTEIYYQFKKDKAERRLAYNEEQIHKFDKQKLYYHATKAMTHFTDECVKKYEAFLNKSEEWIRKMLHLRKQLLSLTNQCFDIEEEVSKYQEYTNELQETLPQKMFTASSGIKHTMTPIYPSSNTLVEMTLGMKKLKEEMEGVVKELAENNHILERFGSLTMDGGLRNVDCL

The target in a further test is T3, EPHB4 (Homo sapiens, UniProt P54760).
T3 sequence (P54760 1-987): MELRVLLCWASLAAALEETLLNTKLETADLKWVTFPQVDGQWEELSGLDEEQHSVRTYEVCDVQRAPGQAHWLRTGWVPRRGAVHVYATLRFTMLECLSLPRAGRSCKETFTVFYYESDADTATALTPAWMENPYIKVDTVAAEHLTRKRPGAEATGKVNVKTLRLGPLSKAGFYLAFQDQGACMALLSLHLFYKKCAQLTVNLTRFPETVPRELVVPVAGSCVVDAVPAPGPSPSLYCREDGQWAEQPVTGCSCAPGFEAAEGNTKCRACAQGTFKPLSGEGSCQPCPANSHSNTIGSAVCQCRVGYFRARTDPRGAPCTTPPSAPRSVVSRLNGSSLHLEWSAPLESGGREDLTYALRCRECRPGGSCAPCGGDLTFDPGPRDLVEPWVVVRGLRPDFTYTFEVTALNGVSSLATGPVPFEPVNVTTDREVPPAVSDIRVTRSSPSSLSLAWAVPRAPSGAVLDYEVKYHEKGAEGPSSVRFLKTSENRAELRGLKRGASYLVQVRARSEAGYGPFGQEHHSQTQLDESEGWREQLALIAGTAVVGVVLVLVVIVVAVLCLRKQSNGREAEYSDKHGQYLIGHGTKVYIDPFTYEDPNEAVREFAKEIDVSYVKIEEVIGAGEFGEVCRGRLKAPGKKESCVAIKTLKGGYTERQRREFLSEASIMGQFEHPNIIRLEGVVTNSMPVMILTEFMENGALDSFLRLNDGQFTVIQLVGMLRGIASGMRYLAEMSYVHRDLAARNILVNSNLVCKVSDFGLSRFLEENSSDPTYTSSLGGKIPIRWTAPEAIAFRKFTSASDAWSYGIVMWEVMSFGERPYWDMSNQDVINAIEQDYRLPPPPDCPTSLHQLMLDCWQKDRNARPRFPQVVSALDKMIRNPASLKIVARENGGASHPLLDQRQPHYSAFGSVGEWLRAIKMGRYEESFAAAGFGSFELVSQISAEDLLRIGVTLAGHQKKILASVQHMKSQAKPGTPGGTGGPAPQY

SMILES strings stand for the structures. Values joined by “and” are separate entries in the source; they are usually repeats but may differ in a detail not shown here. Equal entries are not always repeated. Where only a bound is given, the exact number is not on record here.

Sequence of ZAK (Q9NYL2 whole entry): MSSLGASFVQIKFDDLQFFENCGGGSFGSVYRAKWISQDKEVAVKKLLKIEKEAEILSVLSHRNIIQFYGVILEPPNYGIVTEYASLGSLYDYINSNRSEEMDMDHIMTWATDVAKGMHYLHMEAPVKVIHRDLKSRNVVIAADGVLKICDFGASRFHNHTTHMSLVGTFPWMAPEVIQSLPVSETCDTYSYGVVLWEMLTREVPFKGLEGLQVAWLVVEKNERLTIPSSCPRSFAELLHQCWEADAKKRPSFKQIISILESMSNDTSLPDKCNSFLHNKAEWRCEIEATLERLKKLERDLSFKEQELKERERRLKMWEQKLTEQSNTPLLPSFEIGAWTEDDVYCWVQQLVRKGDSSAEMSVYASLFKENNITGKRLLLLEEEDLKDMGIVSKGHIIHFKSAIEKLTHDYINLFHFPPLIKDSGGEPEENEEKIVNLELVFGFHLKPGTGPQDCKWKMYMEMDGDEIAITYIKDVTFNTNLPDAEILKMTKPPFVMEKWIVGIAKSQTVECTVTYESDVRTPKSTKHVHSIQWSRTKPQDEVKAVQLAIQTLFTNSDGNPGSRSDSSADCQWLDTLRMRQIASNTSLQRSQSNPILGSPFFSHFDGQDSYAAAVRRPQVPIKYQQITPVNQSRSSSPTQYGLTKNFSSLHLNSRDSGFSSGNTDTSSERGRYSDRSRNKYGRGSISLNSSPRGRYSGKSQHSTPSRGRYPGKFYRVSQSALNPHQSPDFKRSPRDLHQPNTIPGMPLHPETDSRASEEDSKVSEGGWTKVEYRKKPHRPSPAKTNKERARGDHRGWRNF
Sequence of YES1 (P07947 whole entry): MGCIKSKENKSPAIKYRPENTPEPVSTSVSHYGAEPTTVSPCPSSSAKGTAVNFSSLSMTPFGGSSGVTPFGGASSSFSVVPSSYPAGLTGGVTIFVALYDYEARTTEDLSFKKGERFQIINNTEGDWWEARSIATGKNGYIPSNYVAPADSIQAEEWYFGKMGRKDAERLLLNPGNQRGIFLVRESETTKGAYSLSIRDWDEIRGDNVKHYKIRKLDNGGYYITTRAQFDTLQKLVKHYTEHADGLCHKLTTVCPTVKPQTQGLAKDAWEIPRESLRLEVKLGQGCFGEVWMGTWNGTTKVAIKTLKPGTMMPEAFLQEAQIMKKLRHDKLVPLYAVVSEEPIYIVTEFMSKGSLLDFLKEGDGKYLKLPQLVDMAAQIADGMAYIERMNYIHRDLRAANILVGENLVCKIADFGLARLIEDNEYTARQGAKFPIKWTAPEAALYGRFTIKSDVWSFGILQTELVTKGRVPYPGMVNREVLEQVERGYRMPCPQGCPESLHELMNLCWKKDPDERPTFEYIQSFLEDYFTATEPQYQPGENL
Sequence of RIPK2 (O43353 whole entry): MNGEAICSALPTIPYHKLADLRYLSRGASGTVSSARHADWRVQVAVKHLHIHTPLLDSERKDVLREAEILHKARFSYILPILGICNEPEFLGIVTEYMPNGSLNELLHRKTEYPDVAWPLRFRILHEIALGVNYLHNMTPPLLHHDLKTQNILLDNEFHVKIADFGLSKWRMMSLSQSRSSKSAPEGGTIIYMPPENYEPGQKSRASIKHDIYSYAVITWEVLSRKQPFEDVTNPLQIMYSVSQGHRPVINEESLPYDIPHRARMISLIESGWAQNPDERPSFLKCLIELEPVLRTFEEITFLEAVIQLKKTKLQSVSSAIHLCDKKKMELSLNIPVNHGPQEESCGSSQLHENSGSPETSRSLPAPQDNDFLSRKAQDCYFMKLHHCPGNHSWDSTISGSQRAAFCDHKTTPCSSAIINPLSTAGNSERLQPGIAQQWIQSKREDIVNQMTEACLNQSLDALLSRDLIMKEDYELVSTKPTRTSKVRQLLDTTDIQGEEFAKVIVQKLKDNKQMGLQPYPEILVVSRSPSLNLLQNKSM
Sequence of MAPK9 (P45984 whole entry): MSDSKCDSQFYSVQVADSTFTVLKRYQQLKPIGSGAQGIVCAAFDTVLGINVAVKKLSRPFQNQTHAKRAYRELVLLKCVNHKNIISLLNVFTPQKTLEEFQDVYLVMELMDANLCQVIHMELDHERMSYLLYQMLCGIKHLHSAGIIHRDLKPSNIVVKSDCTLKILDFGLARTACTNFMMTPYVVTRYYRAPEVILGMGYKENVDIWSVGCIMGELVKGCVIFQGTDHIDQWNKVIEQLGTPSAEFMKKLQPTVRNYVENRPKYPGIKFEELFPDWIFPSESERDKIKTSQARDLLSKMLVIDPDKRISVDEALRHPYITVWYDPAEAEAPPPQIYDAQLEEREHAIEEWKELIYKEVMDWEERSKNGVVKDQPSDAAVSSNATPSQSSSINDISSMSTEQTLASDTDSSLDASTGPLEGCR
Sequence of CSNK1D (P48730 whole entry): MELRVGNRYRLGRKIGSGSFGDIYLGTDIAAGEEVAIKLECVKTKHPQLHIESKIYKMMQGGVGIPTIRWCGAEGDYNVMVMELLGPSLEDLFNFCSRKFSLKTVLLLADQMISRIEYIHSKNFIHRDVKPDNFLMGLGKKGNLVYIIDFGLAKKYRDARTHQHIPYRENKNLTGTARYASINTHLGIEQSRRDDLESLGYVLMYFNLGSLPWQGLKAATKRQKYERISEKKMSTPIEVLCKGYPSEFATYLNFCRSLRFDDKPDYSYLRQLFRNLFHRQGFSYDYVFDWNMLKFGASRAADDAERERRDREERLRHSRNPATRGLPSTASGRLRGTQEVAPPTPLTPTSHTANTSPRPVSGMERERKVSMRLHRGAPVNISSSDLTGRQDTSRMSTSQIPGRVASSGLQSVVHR
Sequence of CHEK2 (O96017 whole entry): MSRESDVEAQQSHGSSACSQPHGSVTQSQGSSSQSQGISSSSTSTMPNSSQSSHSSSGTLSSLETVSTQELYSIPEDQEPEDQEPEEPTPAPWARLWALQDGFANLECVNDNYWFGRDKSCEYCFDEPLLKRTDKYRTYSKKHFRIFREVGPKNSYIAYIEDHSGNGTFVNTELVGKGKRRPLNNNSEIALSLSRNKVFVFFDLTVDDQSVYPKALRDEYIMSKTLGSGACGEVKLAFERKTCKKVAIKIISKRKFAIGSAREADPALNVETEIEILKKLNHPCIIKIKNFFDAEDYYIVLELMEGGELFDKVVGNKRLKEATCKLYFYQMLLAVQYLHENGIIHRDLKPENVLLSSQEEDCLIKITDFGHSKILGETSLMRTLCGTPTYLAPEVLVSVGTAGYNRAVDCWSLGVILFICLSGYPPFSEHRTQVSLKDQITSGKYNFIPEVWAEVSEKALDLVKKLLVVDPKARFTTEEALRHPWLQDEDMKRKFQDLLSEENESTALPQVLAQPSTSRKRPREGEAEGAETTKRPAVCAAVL
Sequence of CDK5 (Q00535 whole entry): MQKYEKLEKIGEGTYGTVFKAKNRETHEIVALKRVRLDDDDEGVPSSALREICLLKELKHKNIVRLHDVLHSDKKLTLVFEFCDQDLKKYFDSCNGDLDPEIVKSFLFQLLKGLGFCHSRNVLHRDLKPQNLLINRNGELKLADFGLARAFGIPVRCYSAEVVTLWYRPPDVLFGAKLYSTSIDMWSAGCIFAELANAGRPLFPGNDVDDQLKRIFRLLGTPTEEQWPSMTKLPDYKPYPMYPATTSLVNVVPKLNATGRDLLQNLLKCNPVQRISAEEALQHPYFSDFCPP
Sequence of PRKCB (P05771 whole entry): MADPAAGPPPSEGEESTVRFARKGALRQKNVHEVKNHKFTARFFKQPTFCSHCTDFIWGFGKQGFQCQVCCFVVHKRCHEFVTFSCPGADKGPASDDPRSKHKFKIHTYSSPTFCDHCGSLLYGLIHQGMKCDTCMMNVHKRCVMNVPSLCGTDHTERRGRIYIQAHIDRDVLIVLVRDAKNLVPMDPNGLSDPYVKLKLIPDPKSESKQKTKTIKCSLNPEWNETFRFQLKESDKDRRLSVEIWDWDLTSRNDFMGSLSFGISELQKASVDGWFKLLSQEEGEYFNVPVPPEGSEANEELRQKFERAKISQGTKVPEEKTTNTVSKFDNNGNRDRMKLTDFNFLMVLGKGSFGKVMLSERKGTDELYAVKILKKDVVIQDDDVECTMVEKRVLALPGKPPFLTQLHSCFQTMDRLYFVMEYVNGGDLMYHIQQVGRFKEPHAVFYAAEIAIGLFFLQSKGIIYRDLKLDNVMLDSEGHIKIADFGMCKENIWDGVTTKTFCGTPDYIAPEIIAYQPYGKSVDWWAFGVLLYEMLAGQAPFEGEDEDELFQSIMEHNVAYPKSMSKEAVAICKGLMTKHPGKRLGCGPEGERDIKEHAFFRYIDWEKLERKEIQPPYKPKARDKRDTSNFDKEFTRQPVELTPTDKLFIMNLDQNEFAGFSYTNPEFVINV
Sequence of PCTK2 (Q00537 whole entry): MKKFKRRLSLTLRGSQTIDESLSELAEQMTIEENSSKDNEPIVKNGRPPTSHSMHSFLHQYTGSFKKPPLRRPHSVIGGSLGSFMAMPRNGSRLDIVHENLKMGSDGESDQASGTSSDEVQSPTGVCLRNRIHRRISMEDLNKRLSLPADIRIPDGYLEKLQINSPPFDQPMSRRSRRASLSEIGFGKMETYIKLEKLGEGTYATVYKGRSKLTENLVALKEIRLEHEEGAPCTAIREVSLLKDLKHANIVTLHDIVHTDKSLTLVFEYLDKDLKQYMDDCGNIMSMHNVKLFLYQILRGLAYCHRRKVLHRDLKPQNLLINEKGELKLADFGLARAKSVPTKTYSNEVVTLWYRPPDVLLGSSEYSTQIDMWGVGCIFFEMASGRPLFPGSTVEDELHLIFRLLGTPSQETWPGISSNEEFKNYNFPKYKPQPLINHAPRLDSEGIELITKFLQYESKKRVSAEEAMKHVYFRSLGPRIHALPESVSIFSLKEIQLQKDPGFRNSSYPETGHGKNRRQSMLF

As usually defined, the IC50 is the midpoint of a concentration-inhibition curve. A low value points to higher potency. Consider `CN1CCN(c2ccc(Nc3ncc(C#N)c(Nc4ccccc4C(N)=O)n3)cc2)CC1.Cl` [TCMDC-134116], for which the IC50 is 67 nM and 110 nM on CDK5; 6300 nM at PRKACB; 950 nM against ZAK; 180 nM on STK17A; 870 nM against PRKCB; 530 nM and 510 nM at TBK1. In addition, the IC50 on YES1 is 120 nM and 150 nM; at EPHB4, 4300 nM; at CHEK2, 170 nM; on CDC42BPG, 1000 nM; against STK16, 270 nM and 380 nM; against EIF2AK4, 240 nM and 210 nM. Moreover, the IC50 at RIPK2 is 810 nM; on CSNK1D, 1800 nM; on PCTK2, 76 nM and 110 nM; at MAPK9, 1100 nM and 1000 nM.
On to `Cl.NCC1(c2nc(-c3ccc(Cl)c(O)c3)c(-c3ccncc3)[nH]2)CCCCC1` [TCMDC-141154], for which the half-maximal inhibitory concentration (IC50) against CDK5 was greater than 20000 nM; against PRKACB, 890 nM; against ZAK, 8600 nM and 5100 nM; against STK17A, greater than 20000 nM; against PRKCB, 12000 nM and 5900 nM; against TBK1 it was greater than 20000 nM. For the same molecule, the half-maximal inhibitory concentration (IC50) was 4400 nM and 7700 nM against YES1; 5300 nM against EPHB4; greater than 20000 nM on CHEK2; 8000 nM against CDC42BPG; greater than 20000 nM at STK16; greater than 20000 nM against EIF2AK4. Moreover, the IC50 against RIPK2 is 43 nM and 52 nM; against CSNK1D, 69 nM and 79 nM; at PCTK2, greater than 20000 nM; against MAPK9, 1700 nM.
With `CN(C)CC(O)COc1ccc(Nc2ncc([N+](=O)[O-])c(Nc3ccccc3O)n2)cc1.O=C(O)C(F)(F)F` (stereo not drawn) [TCMDC-141399], the IC50 against CDK5 was greater than 20000 nM; against PRKACB, greater than 20000 nM; on ZAK, greater than 20000 nM; on STK17A, 4200 nM; on PRKCB, greater than 20000 nM; at TBK1, greater than 20000 nM. Also, the IC50 was greater than 20000 nM against YES1; greater than 20000 nM against EPHB4; 11000 nM against CHEK2; 9600 nM against CDC42BPG; 1100 nM on STK16; 260 nM and 350 nM at EIF2AK4. For the same molecule, the IC50 against RIPK2 is greater than 20000 nM; at CSNK1D, greater than 20000 nM; against PCTK2 it was 1500 nM and 1400 nM; at MAPK9 it was greater than 20000 nM.

(Values after article PMC4774911, “Biochemical Screening of Five Protein Kinases from Plasmodium falciparum against 14,000 Cell-Active Compounds” (PLoS ONE, 2016).)
